IC50 data for 22 compounds are collected here from patent US8623859B2, “Bradykinin B1 antagonists” (Evotec AG, priority 2008, dated 2014).

Structures can show the parent of a compound that is named as a salt.

Broadly, the IC50 is the concentration that gives 50% inhibition.

The assay has as its target T1, human B1 (Homo sapiens, UniProt P46663).
T1 construct: host or cells: CHO-K1
T1 sequence (P46663 1-353): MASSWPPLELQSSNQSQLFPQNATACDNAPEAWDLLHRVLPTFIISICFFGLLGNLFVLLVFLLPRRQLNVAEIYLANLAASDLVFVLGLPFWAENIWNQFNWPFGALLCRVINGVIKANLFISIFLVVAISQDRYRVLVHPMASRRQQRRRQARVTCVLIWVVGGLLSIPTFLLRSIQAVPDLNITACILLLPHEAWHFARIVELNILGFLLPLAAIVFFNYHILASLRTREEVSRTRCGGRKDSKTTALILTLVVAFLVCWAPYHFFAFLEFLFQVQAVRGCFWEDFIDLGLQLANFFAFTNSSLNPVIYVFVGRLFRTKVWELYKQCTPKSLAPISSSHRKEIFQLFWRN
Briefly: Calcium flux assay for Bradykinin B1 antagonist, CHO-K1 cell line expressing human B1. In kind it is cell-based. As to conditions: CHO-K1 cells expressing human B1, agonist Lys-(Des-Arg)-Bradykinin, read-out: Potency (IC50 value against human B1). An outline of the steps: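 CHO-K1 cells expressing human B1, loaded with 5 μM Fluo-4AM (2 h, 37° C) in HEPES buffer pH 7.4 with probenecid and 0.1% BSA, were preincubated 30 min at 25° C with compound (8 concentrations, triplicate, 1% DMSO) before B1 agonist addition. Ca2+ fluorescence monitored at 538 nm; background-normalized integrated values plotted against log antagonist concentration.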
A general note: Calcium flux is commonly read through the fluorescence of an indicator in the cells.
In the case of `COc1cc(C)c(S(=O)(=O)N(Cc2nc(C(=O)N3CCN(CC4CCCN(C)C4)CC3)co2)C2CC2)c(C)c1` (stereo not shown) [Ex 192, N-Cyclopropyl-4-methoxy-2,6-dimethyl-N-{[4-({4-[(1-methylpiperidin-3-yl)methyl]piperazin-1-yl}carbonyl)-1,3-oxazol-2-yl]methyl}benzenesulfonamide trifluoroacetate], the concentration for half-maximal inhibition (IC50) was less than 10 nM.

Regarding `COc1cc(C)c(S(=O)(=O)N(Cc2nc(C(=O)N3CCC(CCN4CCCC4)CC3)co2)C2CC2)c(C)c1` [Ex 193, N-Cyclopropyl-4-methoxy-2,6-dimethyl-N-[(4-{[4-(2-pyrrolidin-1-ylethyl)piperidin-1-yl]carbonyl}-1,3-oxazol-2-yl)methyl]benzenesulfonamide trifluoroacetate], the concentration for half-maximal inhibition (IC50) is less than 10 nM.

Take `COc1cc(C)c(S(=O)(=O)N(Cc2nc(C(=O)N3CCN(CCN4CCCCC4)CC3)co2)C2CC2)c(C)c1` [Ex 194, N-Cyclopropyl-4-methoxy-2,6-dimethyl-N-[(4-{[4-(2-piperidin-1-ylethyl)piperazin-1-yl]carbonyl}-1,3-oxazol-2-yl)methyl]benzenesulfonamide trifluoroacetate]: the IC50 was less than 10 nM.

As to `COc1cc(C)c(S(=O)(=O)N(Cc2nc(C(=O)N3CCN(CCN4CCCC4)CC3)co2)C2CC2)c(C)c1` [Ex 195, N-Cyclopropyl-4-methoxy-2,6-dimethyl-N-[(4-{[4-(2-pyrrolidin-1-ylethyl)piperazin-1-yl]carbonyl}-1,3-oxazol-2-yl)methyl]benzenesulfonamide trifluoroacetate], the half-maximal inhibitory concentration (IC50) is less than 10 nM.

With `COc1cc(C)c(S(=O)(=O)N(Cc2nc(C(=O)N3CCN(CCCN(C)C)CC3)co2)C2CC2)c(C)c1` [Ex 196, N-Cyclopropyl-N-{[4-({4-[3-(dimethylamino)propyl]piperazin-1-yl}carbonyl)-1,3-oxazol-2-yl]methyl}-4-methoxy-2,6-dimethylbenzenesulfonamide trifluoroacetate], the IC50 is less than 10 nM.

With `COc1cc(C)c(S(=O)(=O)N(Cc2nc(C(=O)N3CCN(CCCN4CCCC4)CC3)co2)C2CC2)c(C)c1` [Ex 197, N-Cyclopropyl-4-methoxy-2,6-dimethyl-N-[(4-{[4-(3-pyrrolidin-1-ylpropyl)piperazin-1-yl]carbonyl}-1,3-oxazol-2-yl)methyl]benzenesulfonamide trifluoroacetate], the IC50 was less than 10 nM.

In the case of `COc1cc(C)c(S(=O)(=O)N(Cc2nc(C(=O)N(C)Cc3ccc(CN4CCC(C)(O)C4)cc3)co2)C2CC2)c(C)c1` (stereo not shown) [Ex 198, 2-({Cyclopropyl[(4-methoxy-2,6-dimethylphenyl)sulfonyl]amino}methyl)-N-{4-[(3-hydroxy-3-methylpyrrolidin-1-yl)methyl]benzyl}-N-methyl-1,3-oxazole-4-carboxamide], the IC50 is less than 10 nM.

Consider `COc1cc(C)c(S(=O)(=O)N(Cc2nc(C(=O)N(C)Cc3nnc(CN4CCCC4)s3)co2)C2CC2)c(C)c1` [Ex 199, 2-({Cyclopropyl[(4-methoxy-2,6-dimethylphenyl)sulfonyl]amino}methyl)-N-methyl-N-{[5-(pyrrolidin-1-ylmethyl)-1,3,4-thiadiazol-2-yl]methyl}-1,3-oxazole-4-carboxamide trifluoroacetate], for which the IC50 is less than 10 nM.

Take `COc1cc(C)c(S(=O)(=O)N(Cc2nc(C(=O)N(C)Cc3nc(CN4CCCC4)cs3)co2)C2CC2)c(C)c1` [Ex 200, 2-({Cyclopropyl[(4-methoxy-2,6-dimethylphenyl)sulfonyl]amino}methyl)-N-methyl-N-{[4-(pyrrolidin-1-ylmethyl)-1,3-thiazol-2-yl]methyl}-1,3-oxazole-4-carboxamide trifluoroacetate]: the IC50 is less than 10 nM.

`COc1cc(C)c(S(=O)(=O)N(C)Cc2nc(C(=O)N(C)Cc3nnc(CN4CCCC4)s3)co2)c(C)c1` [Ex 201, 2-({[(4-Methoxy-2,6-dimethylphenyl)sulfonyl](methyl)amino}methyl)-N-methyl-N-{[5-(pyrrolidin-1-ylmethyl)-1,3,4-thiadiazol-2-yl]methyl}-1,3-oxazole-4-carboxamide trifluoroacetate]: the IC50 is 100 to 1000 nM.

Consider `COc1cc(C)c(S(=O)(=O)N(C)Cc2nc(C(=O)N(C)Cc3nc(CN4CCCC4)cs3)co2)c(C)c1` [Ex 202, 2-({[(4-Methoxy-2,6-dimethylphenyl)sulfonyl](methyl)amino}methyl)-N-methyl-N-{[4-(pyrrolidin-1-ylmethyl)-1,3-thiazol-2-yl]methyl}-1,3-oxazole-4-carboxamide trifluoroacetate], for which the IC50 was in the range of 10 to 100 nM.

Turning to `COc1cc(C)c(S(=O)(=O)N(Cc2nc(C(=O)N(C)Cc3ccc(CN4CCCC4)nc3)co2)C2CC2)c(C)c1` [Ex 203, 2-({Cyclopropyl[(4-methoxy-2,6-dimethylphenyl)sulfonyl]amino}methyl)-N-methyl-N-{[6-(pyrrolidin-1-ylmethyl)pyridin-3-yl]methyl}-1,3-oxazole-4-carboxamide], the IC50 is less than 10 nM.

Regarding `COc1cc(C)c(S(=O)(=O)N(Cc2nc(C(=O)N3CCN(CCCCN(C)C)CC3)co2)C2CC2)c(C)c1` [Ex 204, N-Cyclopropyl-N-{[4-({4-[4-(dimethylamino)butyl]piperazin-1-yl}carbonyl)-1,3-oxazol-2-yl]methyl}-4-methoxy-2,6-dimethylbenzenesulfonamide trifluoroacetate], the IC50 was less than 10 nM.

For the compound `COc1cc(C)c(S(=O)(=O)N(Cc2nc(C(=O)N3CC4CCNCC4C3)co2)C2CC2)c(C)c1` (stereo not shown) [Ex 205, N-Cyclopropyl-4-methoxy-2,6-dimethyl-N-{[4-(octahydro-2H-pyrrolo[3,4-c]pyridin-2-ylcarbonyl)-1,3-oxazol-2-yl]methyl}benzenesulfonamide], the IC50 was 100 to 1000 nM.

On to `COc1cc(C)c(S(=O)(=O)N(Cc2nc(C(=O)N3CC4CCN(C5CCN(C)CC5)CC4C3)co2)C2CC2)c(C)c1` (stereo not shown) [Ex 206, N-Cyclopropyl-4-methoxy-2,6-dimethyl-N-[(4-{[5-(1-methylpiperidin-4-yl)octahydro-2H-pyrrolo[3,4-c]pyridin-2-yl]carbonyl}-1,3-oxazol-2-yl)methyl]benzenesulfonamide trifluoroacetate], for which the half-inhibitory concentration (IC50) was in the range of 100 to 1000 nM.

Consider `COc1cc(C)c(S(=O)(=O)N(Cc2nc(C(=O)N3CC4CCN(C5CN6CCC5CC6)CC4C3)co2)C2CC2)c(C)c1` (stereo not shown) [Ex 207, N-[(4-{[5-(1-Azabicyclo[2.2.2]oct-3-yl)octahydro-2H-pyrrolo[3,4-c]pyridin-2-yl]carbonyl}-1,3-oxazol-2-yl)methyl]-N-cyclopropyl-4-methoxy-2,6-dimethylbenzenesulfonamide trifluoroacetate], for which the IC50 is less than 10 nM.

For `COc1cc(C)c(S(=O)(=O)N(Cc2nc(C(=O)N3CCC(N(C)C4CCN(C)CC4)C3)co2)C2CC2)c(C)c1` (stereo not shown) [Ex 208, N-Cyclopropyl-4-methoxy-2,6-dimethyl-N-{[4-({3-[methyl(1-methylpiperidin-4-yl)amino]pyrrolidin-1-yl}carbonyl)-1,3-oxazol-2-yl]methyl}benzenesulfonamide trifluoroacetate], the IC50 lay in the range of 100 to 1000 nM.

With `COc1cc(C)c(S(=O)(=O)N(Cc2nc(C(=O)N3CC4CN(Cc5ccc(OC)nc5)CC4C3)co2)C2CC2)c(C)c1` (stereo not shown) [Ex 209, N-Cyclopropyl-4-methoxy-N-{[4-({5-[(6-methoxypyridin-3-yl)methyl]hexahydropyrrolo[3,4-c]pyrrol-2(1H)-yl}carbonyl)-1,3-oxazol-2-yl]methyl}-2,6-dimethylbenzenesulfonamide trifluoroacetate], the IC50 was in the range of 100 to 1000 nM.

For the compound `COc1cc(C)c(S(=O)(=O)N(Cc2nc(C(=O)N3CC4CCN(Cc5ccc(OC)nc5)CC4C3)co2)C2CC2)c(C)c1` (stereo not shown) [Ex 210, N-Cyclopropyl-4-methoxy-N-{[4-({5-[(6-methoxypyridin-3-yl)methyl]octahydro-2H-pyrrolo[3,4-c]pyridin-2-yl}carbonyl)-1,3-oxazol-2-yl]methyl}-2,6-dimethylbenzenesulfonamide trifluoroacetate], the IC50 is 10 to 100 nM.

For `COc1cc(C)c(S(=O)(=O)N(Cc2nc(C(=O)N3CC4CCN(Cc5ccc(N6CCCC6)nc5)CC4C3)co2)C2CC2)c(C)c1` (stereo not shown) [Ex 211, N-Cyclopropyl-4-methoxy-2,6-dimethyl-N-{[4-({5-[(6-pyrrolidin-1-ylpyridin-3-yl)methyl]octahydro-2H-pyrrolo[3,4-c]pyridin-2-yl}carbonyl)-1,3-oxazol-2-yl]methyl}benzenesulfonamide trifluoroacetate], the IC50 is less than 10 nM.

`COc1cc(C)c(S(=O)(=O)N(Cc2nc(C(=O)N3CCC(N(C)Cc4ccc(OC)nc4)C3)co2)C2CC2)c(C)c1` (stereo not shown) [Ex 212, N-Cyclopropyl-4-methoxy-N-({4-[(3-{[(6-methoxypyridin-3-yl)methyl](methyl)amino}pyrrolidin-1-yl)carbonyl]-1,3-oxazol-2-yl}methyl)-2,6-dimethylbenzenesulfonamide trifluoroacetate]: the IC50 was in the range of 100 to 1000 nM.

With `CN(CCc1ccc(C2=NCCN2)cc1)C(=O)c1coc(CN(C2CC2)S(=O)(=O)c2c(Cl)cccc2Cl)n1` [Ex 213, 2-({Cyclopropyl[(2,6-dichlorophenyl)sulfonyl]amino}methyl)-N-{2-[4-(4,5-dihydro-1H-imidazol-2-yl)phenyl]ethyl}-N-methyl-1,3-oxazole-4-carboxamide trifluoroacetate], the IC50 lay within 100 to 1000 nM.
